Data reported in ChEMBL document CHEMBL6087385, “Synthesis and biological evaluation of Ribo 7-N/O/S pyrimidine 9-deaza C-nucleoside analogs as new antiviral agents for inhibiting HCV RNA-dependent RNA polymerases” (Eur J Med Chem, 2024).

Columns and labels:
[1] = Drug metabolism in human Huh-luc/neo cells assessed as triphosphate metabolite formation at 10 uM measured after 24 hrs by HPLC-MS analysis; type: ADME, cell-based
[2] = Drug concentration in Sprague-Dawley rat liver at 2 mg/kg, iv measured upto 24 hrs in presence of ATP by LC-MS/MS analysis; type: ADME, organism-based; conditions: read-out: Ct
[3] = Drug level in Sprague-Dawley rat liver assessed as triphosphate metabolite concentration at 2 mg/kg, iv measured after 1 hr in presence of ATP by LC-MS/MS analysis; type: ADME, organism-based; conditions: in vivo, read-out: Ct
Hepatitis C virus = test: Anti-viral activity against HCV genotype 2a infected in Lunet-CD81 cells; type: functional, organism-based, Hepacivirus hominis
[4] = Tmax in Sprague-Dawley rat at 1 mg/kg, iv by reverse phase chromatography; type: ADME, organism-based; conditions: in vivo
[5] = Tmax in Sprague-Dawley rat at 10 mg/kg, po by reverse phase chromatography; type: ADME, organism-based; conditions: in vivo
[6] = Tmax in Cynomolgus monkey at 1 mg/kg, iv by reverse phase chromatography; type: ADME, organism-based, Macaca fascicularis; conditions: in vivo
[7] = Cmax in female mouse at 1 mg/kg, iv by reverse phase chromatography; type: ADME, organism-based; conditions: in vivo
[8] = Cmax in female mouse at 5 mg/kg, po by reverse phase chromatography; type: ADME, organism-based; conditions: in vivo
[9] = Cmax in Sprague-Dawley rat at 5 mg/kg, po by reverse phase chromatography; type: ADME, organism-based; conditions: in vivo
[10] = Cmax in Cynomolgus monkey at 1 mg/kg, iv by reverse phase chromatography; type: ADME, organism-based, Macaca fascicularis; conditions: in vivo, time 7 day
[11] = Half life in female mouse at 1 mg/kg, iv by reverse phase chromatography; type: ADME, organism-based; conditions: in vivo
[12] = Volume of distribution in female mouse at 1 mg/kg, iv by reverse phase chromatography; type: ADME, organism-based; conditions: in vivo
[13] = Volume of distribution in Sprague-Dawley rat at 1 mg/kg, iv by reverse phase chromatography; type: ADME, organism-based; conditions: in vivo
[14] = Clearance in Sprague-Dawley rat at 1 mg/kg, iv by reverse phase chromatography; type: ADME, organism-based; conditions: in vivo
[15] = AUC in female mouse at 1 mg/kg, iv by reverse phase chromatography; type: ADME, organism-based; conditions: in vivo
[16] = AUC in female mouse at 5 mg/kg, po by reverse phase chromatography; type: ADME, organism-based; conditions: in vivo
[17] = AUC in Sprague-Dawley rat at 10 mg/kg, po by reverse phase chromatography; type: ADME, organism-based; conditions: in vivo
[18] = AUC in Cynomolgus monkey at 1 mg/kg, iv by reverse phase chromatography; type: ADME, organism-based, Macaca fascicularis; conditions: in vivo
[19] = AUC in Cynomolgus monkey at 10 mg/kg, po administered for 7 days by reverse phase chromatography; type: ADME, organism-based, Macaca fascicularis; conditions: in vivo, time 7 day
[20] = AUC (0 to infinity) in female mouse at 1 mg/kg, iv by reverse phase chromatography; type: ADME, organism-based; conditions: in vivo
[21] = AUC (0 to infinity) in Sprague-Dawley rat at 5 mg/kg, po by reverse phase chromatography; type: ADME, organism-based; conditions: in vivo
[22] = AUC (0 to infinity) in Cynomolgus monkey at 1 mg/kg, iv by reverse phase chromatography; type: ADME, organism-based, Macaca fascicularis; conditions: in vivo
[23] = Oral bioavailability in mouse at 5 mg/kg by reverse phase chromatography; type: ADME, organism-based; conditions: in vivo
[24] = Oral bioavailability in Sprague-Dawley rat at 10 mg/kg by reverse phase chromatography; type: ADME, organism-based; conditions: in vivo
[25] = Oral bioavailability in Cynomolgus monkey at 10 mg/kg administered for 7 days by reverse phase chromatography; type: ADME, organism-based, Macaca fascicularis; conditions: in vivo, time 7 day
[26] = Drug absorption in human Caco-2 cells; type: ADME, cell-based
[27] = Metabolic stability in Non human primate liver microsome assessed as half life in presence of NADPH; type: ADME; conditions: liver microsomes
[28] = Metabolic stability in cryopreserved Non human primate hepatocyte assessed as half life in presence of NADPH; type: ADME, cell-based; conditions: cryopreserved hepatocytes
[29] = target: hERG potassium channel (KCNH2) (Homo sapiens, UniProt Q12809); test: Inhibition of hERG potassium channel expressed in HEK cells at 100 uM relative to control; type: toxicity, cell-based; conditions: HEK cells expressing hERG
Sequence of hERG potassium channel (KCNH2) (Q12809 whole entry): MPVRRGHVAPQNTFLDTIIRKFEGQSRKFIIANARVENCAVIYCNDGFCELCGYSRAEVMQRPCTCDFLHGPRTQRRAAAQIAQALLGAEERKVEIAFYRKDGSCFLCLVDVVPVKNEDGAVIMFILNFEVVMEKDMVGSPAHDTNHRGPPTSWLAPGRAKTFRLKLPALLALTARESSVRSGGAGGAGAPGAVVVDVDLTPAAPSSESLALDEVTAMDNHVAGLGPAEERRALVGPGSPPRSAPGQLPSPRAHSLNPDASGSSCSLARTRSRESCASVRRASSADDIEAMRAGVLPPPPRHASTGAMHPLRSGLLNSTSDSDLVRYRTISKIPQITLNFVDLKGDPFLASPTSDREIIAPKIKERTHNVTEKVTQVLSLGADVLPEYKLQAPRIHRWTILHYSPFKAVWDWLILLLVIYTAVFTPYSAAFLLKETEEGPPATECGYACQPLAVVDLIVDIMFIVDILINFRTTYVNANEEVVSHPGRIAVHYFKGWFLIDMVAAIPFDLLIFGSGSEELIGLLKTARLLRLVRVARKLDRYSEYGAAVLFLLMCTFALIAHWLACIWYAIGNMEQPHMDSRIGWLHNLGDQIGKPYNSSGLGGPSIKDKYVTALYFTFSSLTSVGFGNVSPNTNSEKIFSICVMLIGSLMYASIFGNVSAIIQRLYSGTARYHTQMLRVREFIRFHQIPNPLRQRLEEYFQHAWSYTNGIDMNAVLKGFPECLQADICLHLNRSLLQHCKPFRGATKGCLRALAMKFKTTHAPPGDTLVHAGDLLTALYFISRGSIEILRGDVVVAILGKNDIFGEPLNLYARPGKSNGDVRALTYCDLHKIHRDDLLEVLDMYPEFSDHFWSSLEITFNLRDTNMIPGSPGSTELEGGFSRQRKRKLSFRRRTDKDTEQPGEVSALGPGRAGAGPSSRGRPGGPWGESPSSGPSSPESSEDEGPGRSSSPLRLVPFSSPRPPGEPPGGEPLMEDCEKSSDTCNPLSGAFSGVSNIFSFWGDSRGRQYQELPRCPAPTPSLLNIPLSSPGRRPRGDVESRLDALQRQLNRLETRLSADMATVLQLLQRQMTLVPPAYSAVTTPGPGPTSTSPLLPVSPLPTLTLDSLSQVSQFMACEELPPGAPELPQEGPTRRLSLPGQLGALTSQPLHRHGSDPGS

[30] = Toxicity in po dosed rat assessed as no observable adverse effect level; type: organism-based; conditions: in vivo
[31] = Toxicity in dog assessed as effect on […] function at 1 to 5 mg/kg, po administered for 3 hr post dose by electrocardiogram analysis; type: organism-based, Canis lupus familiaris; conditions: in vivo, dose 1-5 mg/kg
[32] = Toxicity in dog assessed as increase in QTc interval at 1 to 5 mg/kg, po measured after 3 hrs; type: organism-based, Canis lupus familiaris; conditions: in vivo, dose 1-5 mg/kg
[33] = Genotoxicity in human Lymphocyte assessed as induction of chromosomal aberration upto 3000 ug/ml; type: toxicity, cell-based; conditions: dose < 3000 µg/ml
[34] = Genotoxicity in mouse L5178Y cells assessed as increase in forward mutation at thymidine kinase locus measured after 4 hrs; type: toxicity, cell-based
[35] = Toxicity in rat assessed as change in body weight at 1 to 9 mg/kg, po; type: organism-based; conditions: in vivo, dose 1-9 mg/kg
[36] = Toxicity in rat assessed as mortality at 1 to 9 mg/kg, po; type: organism-based; conditions: in vivo, dose 1-9 mg/kg
[37] = Toxicity in rat assessed as effect on respiratory measures at 1 to 9 mg/kg, po; type: organism-based; conditions: in vivo, dose 1-9 mg/kg
[38] = Toxicity in Sprague-Dawley rat assessed as weight loss at 90 mg/kg, po administered as single dose and measured after 14 days; type: organism-based; conditions: in vivo, 336 h, time 14 day
[39] = Toxicity in Sprague-Dawley rat assessed as weight loss at 150 mg/kg, po administered as single dose and measured after 14 days; type: organism-based; conditions: in vivo, 336 h, time 14 day
[40] = Toxicity in Sprague-Dawley rat assessed as weight loss at 250 mg/kg, po administered as single dose and measured after 14 days; type: organism-based; conditions: in vivo, 336 h, time 14 day
[41] = Toxicity in Sprague-Dawley rat assessed as piloerection at 150 mg/kg, po administered as single dose and measured after 14 days; type: organism-based; conditions: in vivo, 336 h, time 14 day
[42] = Toxicity in Sprague-Dawley rat assessed as lethargy at 90 mg/kg, po administered as single dose and measured after 14 days; type: organism-based; conditions: in vivo, 336 h, time 14 day
[43] = Toxicity in Sprague-Dawley rat assessed as lethargy at 150 mg/kg, po administered as single dose and measured after 14 days; type: organism-based; conditions: in vivo, 336 h, time 14 day
[44] = Toxicity in Sprague-Dawley rat assessed as lethargy at 250 mg/kg, po administered as single dose and measured after 14 days; type: organism-based; conditions: in vivo, 336 h, time 14 day
[45] = Toxicity in Sprague-Dawley rat assessed as eyes and nares staining at 100 mg/kg, po administered as single dose and measured after 14 days; type: organism-based; conditions: in vivo, 336 h, time 14 day
[46] = Toxicity in Sprague-Dawley rat assessed as diarrhea at 100 mg/kg, po administered as single dose and measured after 14 days; type: organism-based; conditions: in vivo, 336 h, time 14 day
[47] = Toxicity in cynomolgus monkey assessed as weight loss at 100 to 500 mg/kg, po administered as single dose; type: organism-based, Macaca fascicularis; conditions: in vivo, dose 100-500 mg/kg
[48] = Toxicity in Cynomolgus monkey assessed as emesis at 250 to 500 mg/kg, po administered as single dose; type: organism-based, Macaca fascicularis; conditions: in vivo, dose 250-500 mg/kg
[49] = Toxicity in Cynomolgus monkey assessed as emesis at 100 mg/kg, po administered twice a day; type: organism-based, Macaca fascicularis; conditions: in vivo
[50] = Toxicity in Cynomolgus monkey assessed as animal death at 100 mg/kg, po administered twice a day; type: organism-based, Macaca fascicularis; conditions: in vivo

C[C@@]1(O)[C@H](O)[C@@H](CO)O[C@H]1c1coc2c(N)ncnc12
Drug metabolism [1]: metabolite_detected | concentration at 24 h [2]: 0.42 µM | concentration [3]: 22.6 µM | EC50 (Hepatitis C virus): > 50 µM | Tmax [4]: 4.8 min | Tmax [5]: 30 min | Tmax [6]: 1.8 min | Cmax [7]: 1130 ng/mL | Cmax [8]: 1060 ng/mL | Cmax [9]: 593 ng/mL | Cmax [10]: 3200 ng/mL | half-life [11]: 1340 min | Vd [12]: 22.4 L/kg | Vd [13]: 33.2 L/kg | clearance [14]: 17.6 mL/min/kg | AUC [15]: 866 ng·h/mL | AUC [16]: 3250 ng·h/mL | AUC [17]: 4980 ng·h/mL | AUC [18]: 1930 ng·h/mL | AUC at 168 h [19]: 7260 ng·h/mL | AUC(0-inf) [20]: 1440 ng·h/mL | AUC(0-inf) [21]: 2150 ng·h/mL | AUC(0-inf) [22]: 2340 ng·h/mL | bioavailability [23]: 75% | bioavailability [24]: 71.2% | bioavailability [25]: 37.6% | Drug absorption [26]: Not_active | half-life [27]: > 100 min | half-life [28]: > 60 min | inhibition at 100 µM [29]: 1.3% | NOAEL [30]: ≤ 9 mg/kg | Activity [31]: Non-toxic | Activity [32]: Non-toxic | Activity [33]: Non-toxic | Activity [34]: Toxic | Activity [35]: Non-toxic | Activity [36]: Non-toxic | Activity [37]: Non-toxic | Activity [38]: Toxic | Activity [39]: Toxic | Activity [40]: Non-toxic | Activity [41]: Toxic | Activity [42]: Non-toxic | Activity [43]: Toxic | Activity [44]: Non-toxic | Activity [45]: Non-toxic | Activity [46]: Non-toxic | Activity [47]: Non-toxic | Activity [48]: Toxic | Activity [49]: Non-toxic | Activity [50]: Non-toxic
